For data set [1], the system named is HT-1080 cells. As to the kind of experiment: Cell viability assays in HT-1080 cells, ferroptosis induced by IKE or RSL3 (Example 8). The conditions noted are these: for IC50: Homo sapiens, HT-1080, 48 h. The class given is cell-based. Here is the method:
Cell culture assays were incubated at 37° C. with 5% CO2. HT-1080 cells were grown in DMEM (Corning) supplemented with 10% FBS (Life Technologies), 1% Penicillin-Streptomycin 10,000 U/mL (Gibco), and 1% MEM Non-Essential Amino Acids Solution 100× (Gibco). For cell viability assays, cells were trypsinized, counted, and seeded into 384-well white polypropylene plates at 1,000 cells/well, unless otherwise specified. After allowing cells to adhere overnight, compounds in DMSO stocks were arrayed in a 16-point dilution series prepared in a mother plate, and treated from a daughter plate, [DMSO]=0.28%. After 24 or 48 h, 50% CellTiter-Glo (Promega) 50% cell culture medium was added to each well and incubated at room temperature with shaking for 15 min. Luminescence was measured using a Victor X5 plate reader (PerkinElmer). All cell viability data were normalized to the DMSO vehicle condition. […] All 384w measurements were performed in triplicate
We first evaluated the efficacy of four pyridine analogs, TH-2-9-1, TH-2-31, TH-2-37-1, and TH-2-37-2, in suppressing ferroptosis induced by IKE and RSL3 in HT-1080 cells. […] We sought to determine whether incorporation of pyridine changed stability in mouse liver microsomes.

Data set [2] is described as follows: Microsomal Stability Assay (Examples 6 and 8). The class given is in vitro ADME, mouse. The conditions noted are these: for microsomal stability / half-life, in words: assessed over two hours; for half-life at 20 µM: CD-1, mouse, liver microsomes, pH 7.4, text, read-out: half-life in mouse liver microsomes. How it is done:
(§1) To a 96-well polypropylene plate was added phosphate buffer (182.2 μL, pH 7.4, 100 mM) followed by addition of NADPH-regenerating system solution A (10 μL), and NADPH regenerating system solution B (2 μL) (Corning Gentest 3P NADPH regenerating system solution A (#451220) and B (#451200)). A stock solution of analog (0.8 μL. 5 mM) or fer-1 (positive control) was added and the mixture was warmed to 37° C. for 5 min. Mouse microsomes (CD-1, 20 mg/mL, Life Technologies) (5 μL, thawed in 37° C. water bath before use) were added. The resulting reaction mixture was kept at 37° C. with gentle agitation for the duration of the experiment. At selected time points (0, 1, 5, 10, 20, 30, 60 and 120 min) aliquots (15 μL) were withdrawn from the plate and quenched upon addition to cold methanol (60 μL), containing an internal standard (5 μM) in a separate 96-well polypropylene plate. At the completion of the final time-point, the samples were centrifuged at 4,000 rpm for 5 min at 4° C. The supernatant (40 μL) was withdrawn and transferred to a sample vial with insert. The samples were analyzed by LC-MS. LC-MS analysis was performed on a platform comprising a Thermo Scientific Dionex Ultimate 3000 and a Bruker amaZon SL equipped with an electrospray ionization source controlled by Bruker Hystar 3.2. Chromatographic separation was performed by injecting 5 μL of the sample onto an Agilent Eclipse Plus C18 column (2.1×50 mm, 3.5 μm) maintained at 20° C. The flow rate was maintained at 400 μL/min. The initial flow conditions were 80% solvent A (water containing 0.1% acetic acid) and 20% solvent B (methanol containing 0.1% acetic acid). Solvent B was raised to 80% over 0.50 min by 1.50 min. Solvent B was raised to 100% by 5.00 min and held there for 3.25 min. […] All analogs were detected in positive mode as [M+H]*. The percent of compound remaining at each time-point was calculated as the ratio of the integrated compound peak over the internal standard peak and standardized to the t=0 time-point. Values were plotted in GraphPad Prism 9 and fit with a one phase decay.
as §1, with “and NADPH-regenerating” for “and NADPH regenerating”, “rpm (1872 g)” for “rpm”, “[M+H]*. […]” for “[M+H]*. The percent of compound remaining at each time-point was calculated as the ratio of the integrated compound peak over the internal standard peak and standardized to the t=0 time-point. Values were plotted in GraphPad Prism 9 and fit with a one phase decay.”
For orientation: Liver microsomes are a subcellular fraction often used to study metabolism.

Data set [3] can be described thus: TH-2-31, TH-4-55-2, TH-4-67 PK Study (IP, IV, PO; plasma and brain). The class given is in vivo, C57BL/6 mice. The conditions noted are these: mouse, in vivo. How it is done:
C57BL/6 mice (8-weeks of age and ˜25 g weight) were weighed before injection and divided into groups of two male and female mice per cage. Compound was dissolved in 5% DMSO/95% of 1:1 [(65% v/v of 25% w/v 2-hydroxypropyl-3-cyclodextrin (Cayman Chemical) dissolved in 20% EtOH, 30% v/v Poly(ethylene glycol)-400 (Sigma Aldrich 202398), 5% v/v Tween 80 (Fluka 59924)):MilliQ water] to create a 2 mg/mL solution. The same formulation without compound was used as a vehicle control. The solution was sterilized using a […] Steriflip filter unit (Thomas Scientific 1189Q46). Mice were dosed IP, IV, and PO routes of administration and euthanized by CO2 asphyxiation for 3 min at 0, 1, 2, 4, 8, and 24 h after administration. To ensure that the vehicle was well-tolerated 4 mice were treated with vehicle and euthanized 4 h after administration. ˜0.5 mL of blood was collected via cardiac puncture and immediately put in K3 EDTA microtubes ([…] 41.1504.105) and kept on ice. Organs were harvested, placed in Eppendorf tubes, and frozen on dry ice. Blood samples were centrifuged for 10 min at 2,100×g at 4° C., then plasma was transferred to a clean tube and frozen on dry ice. Organ samples were weighed and placed in hard tissue homogenizing tubes (Omni International 19-628) and a volume of DEPC-treated nuclease-free water (IBI Scientific IB42200) was added to make a 500 mg/mL solution and homogenized using the Omni Bead Ruptor 4 at speed 5 for 30 seconds. Compound was extracted from plasma or organ homogenate by adding 900 μL acetonitrile to 100 μL plasma or organ homogenate. Samples were mixed by vortexing and allowed to extract overnight at 4° C. prior to mixing for at least 5 min by rotating at room temperature, vortexing, and sonicating for at least 30 second prior to centrifugation for 10 min at 4,000×g and 4° C. The supernatant was then transferred to a glass vial and analyzed by UPLC-MS described below. The concentration of each analog was determined against a standard curve with a nonlinear fit and the data plot in GraphPad Prism 9 and fit with a one phase decay.
Samples from animal studies were analyzed via UPLC-MS using a Waters Xevo G2-Xs QTof Mass spectrometer equipped with an Acquity UPLC. Chromatographic separation was carried out at 50° C. on a Acquity UPLC BEH C18 column (1.7 μm, 2.1 mm×50 mm, pore size 130 Å) over a 4.5 min gradient elution. The flowrate was held constant at 0.8 mL/min. Mobile phase A consisted of water and mobile phase B consisted of ACN both containing 0.1% formic acid. After injection, the gradient was held at 50% A for 0.25 min. For the next minute, the gradient was ramped in a linear fashion to 100% B and held at this composition for 0.5 min. The eluent composition returned to the initial condition in 0.01 min and the column was re-equilibrated for 2.74 min before the next injection. Injection volumes were 0.5 μL (TH-2-31 40 mg/kg) and 1 μL for all other conditions. The Xevo G2-Xs was operated in positive electrospray ionization (ESI) mode. A capillary voltage and sampling cone voltage of 0.5 kV and 30 V were used. The source and desolvation temperatures were kept at 120° C. and […], respectively. Nitrogen was used as the desolvation gas with a flowrate of 750 L/hr. The protonated molecular ion of leucine encephalin ([M+H]^+, m/z 556.2771 was used as a lock mass for mass accuracy and reproducibility. Leucine enkephalin was introduced to the lock mass at a concentration of 2 ng/mL (50% ACN containing 0.1% formic acid), and a flow rate of […]. To avoid signal saturation, the signal transmission was attenuated to <10%, based off the signal intensity of the highest standard concentration for the duration of the run. The data was collected over the mass range m/z 50 to 1200 Da with an acquisition time of 0.1 seconds per scan. The retention time for each analog is detailed below. […]

The subject of data set [4] is N27 rat dopaminergic cells. As to the kind of experiment: Suppression of ferroptosis induced by RSL3 in N27 cells (CellTiter-Glo viability). The class given is cell-based. The conditions noted are these: Rattus norvegicus, N27, 24 h, Table 3; ^d 24 hr treatment, 1,000 cells/well seeded; read-out: IC50. On the technique in general: Cellular ATP, detected with luciferase, serves as a proxy for viable cell number.

The mark [5] stands for this setting: ^b 2 μM IKE, 48 hours, 1,000 cells/well.
Where [6] appears, read: ^c 0.2 μM RSL3, 48 hours, 1,000 cells/well.

“Also recorded” adds a separate entry of the source.

For `CC(C)(C)OC(=O)c1cc(NC2CCCCC2)c(NC23CC4CC(CC(C4)C2)C3)cc1Cl` [AZII11, tert-butyl 4-(((3s,5s,7s)-adamantan-1-yl)amino)-2-chloro-5-(cyclohexylamino)benzoate], the “potency relative to fer-1 at suppressing ferroptosis, in words” value in data set [1] was “less potent than fer-1”. Moreover, in data set [2], the “microsomal stability / half-life, in words” value is “half-lives greater than two hours”. With `CC(C)(C)OC(=O)c1cc(N)c(NC23CC4CC(CC(C4)C2)C3)cc1F` [AZII78, tert-butyl 4-(((3s,5s,7s)-adamantan-1-yl)amino)-5-amino-2-fluorobenzoate], in data set [2], the half-life at 20 µM is under 60 min.

With `Cc1cc(NC23CC4CC(CC(C4)C2)C3)c(N)cc1C(=O)OC(C)(C)C` [AZIII4, tert-butyl 4-(((3s,5s,7s)-adamantan-1-yl)amino)-5-amino-2-methylbenzoate], the half-life at 20 µM in data set [2] was under 60 min.

On to `CC(C)(C)OC(=O)c1cc(NC2CCCCC2)c(NC23CC4CC(CC(C4)C2)C3)cc1F` [AZIII8, tert-butyl 4-(((3s,5s,7s)-adamantan-1-yl)amino)-5-(cyclohexylamino)-2-fluorobenzoate], for which the “potency relative to fer-1 at suppressing ferroptosis, in words” value in data set [1] was “more potent than fer-1”. The “microsomal stability / half-life, in words” value in data set [2] was “half-lives greater than two hours”. Taken in the same sequence, the figures for `Cc1cc(NC23CC4CC(CC(C4)C2)C3)c(NC2CCCCC2)cc1C(=O)OC(C)(C)C` [AZIII9, tert-butyl 4-(((3s,5s,7s)-adamantan-1-yl)amino)-5-(cyclohexylamino)-2-methylbenzoate] were “less potent than fer-1” and “half-lives greater than two hours; also recorded: the most stable compound tested”.

Regarding `Cc1noc(-c2ccc(NC34CC5CC(CC(C5)C3)C4)c(N)c2)n1` [PHB4066, N1-((3s,5s,7s)-adamantan-1-yl)-4-(3-methyl-1,2,4-oxadiazol-5-yl)benzene-1,2-diamine], the half-life at 20 µM in data set [2] is under 60 min. Same read-out and setting: for `Cc1noc(-c2ccc(NC3CCCCC3)c(N)c2)n1` [PHB4078, N1-cyclohexyl-4-(3-methyl-1,2,4-oxadiazol-5-yl)benzene-1,2-diamine] the value was under 60 min. The same measure, in the same setting: for `CC(C)(C)OC(=O)c1ccc(NC2CCCCC2)c(Nc2ccccc2)c1` [PHB4081, tert-butyl 4-(cyclohexylamino)-3-(phenylamino)benzoate] the value was under 60 min.

Regarding `Cc1noc(-c2cc(NC3CCCCC3)cnc2NC2CCCCC2)n1` [TH-2-37-1, N^2,N^5-dicyclohexyl-3-(3-methyl-1,2,4-oxadiazol-5-yl)pyridine-2,5-diamine], the “potency relative to fer-1 at suppressing ferroptosis, in words” value in data set [1] is “potencies greater than fer-1”. Further, the IC50 in data set [1] (setting [5]) is 7.5 nM; in data set [1] (setting [6]) it was 4.3 nM.

Take `Cc1noc(-c2cc(NC(C)C)cnc2NC2CCCCC2)n1` [TH-2-37-2, N^2-cyclohexyl-N^5-isopropyl-3-(3-methyl-1,2,4-oxadiazol-5-yl)pyridine-2,5-diamine]: in data set [1], the “potency relative to fer-1 at suppressing ferroptosis, in words” value is listed as “potencies greater than fer-1”. The figures for the IC50 in data set [1] (setting [5]) and in data set [1] (setting [6]) were 5.4 nM and 3.8 nM, respectively. On to `Cc1noc(-c2cnc(NC34CC5CC(CC(C5)C3)C4)c(NC3CCCCC3)c2)n1` [TH-4-100-2, N^2-((3s,5s,7s)-adamantan-1-yl)-N^3-cyclohexyl-5-(3-methyl-1,2,4-oxadiazol-5-yl) pyridine-2,3-diamine], for which the “tolerability / adverse observations after dosing” value in data set [3] was “less impaired immediately following injection and recovered more quickly; also recorded: less impaired immediately following injection and recovered quicker”. Besides, in data set [4], the IC50 worked out at 18.9 nM.

The half-life is how long it takes for the measured level to halve. Broadly, the IC50 is the point on the concentration scale where inhibition reaches its midpoint.

(Values after patent publication US20240156790A1, “COMPOUNDS, COMPOSITIONS, AND METHODS FOR MODULATING FERROPTOSIS AND TREATING EXCITOTOXIC DISORDERS” (THE TRUSTEES OF COLUMBIA UNIVERSITY IN THE CITY OF NEW YORK, priority 2018, published 2024).)
